Earlier results as cited in patent US20210315248A1, “SYSTEM AND METHOD FOR HOVENIA DULCIS EXTRACTION” (82 Labs Inc., priority 2020, published 2021).

Legend:
[1] = design: key: ability to form inclusion complexes, as indicated by a “+”; settings: guest molecule with γ-cyclodextrin
[2] = design: key: ability to form inclusion complexes, as indicated by a “+”; settings: guest molecule with β-cyclodextrin
[3] = design: key: ability to form inclusion complexes, as indicated by a “+”; settings: guest molecule with α-cyclodextrin
[4] = not given; remark: listed apart in the source

| ability to form inclusion complexes with γ-CD [1] | ability to form inclusion complexes with β-CD [2] | ability to form inclusion complexes with α-CD [3] | Structure (SMILES) | other results |
| --- | --- | --- | --- | --- |
| + |  |  | c1ccc2cc3ccccc3cc2c1 [Anthracene] |  |
| + | + | + | C1CCCCC1 [Cyclohexane] |  |
|  |  | + | [Xe] [Xenon] |  |

The next lines start with the molecule.

| Structure (SMILES) | ability to form inclusion complexes with γ-CD [1] | ability to form inclusion complexes with β-CD [2] | ability to form inclusion complexes with α-CD [3] | other results |
| --- | --- | --- | --- | --- |
| CCCC(=O)O [Butyric acid] |  | + | + |  |
| O=C1c2c(O)cc(O)cc2O[C@H](c2cc(O)c(O)c(O)c2)[C@H]1O [DHM, (2R,3R)-3,5,7-trihydroxy-2-(3,4,5-trihydroxyphenyl)-2,3-dihydrochromen-4-one] |  |  |  | permeability Peff: (1.84±0.37)×10^−6 cm/s |
| c1ccc2ccccc2c1 [Naphthalene] | + | + |  |  |
| CCC(=O)O [Propionic acid] |  |  | + |  |
| OC[C@H]1O[C@@H]2O[C@H]3[C@H](O)[C@@H](O)[C@@H](O[C@H]4[C@H](O)[C@@H](O)[C@@H](O[C@H]5[C@H](O)[C@@H](O)[C@@H](O[C@H]6[C@H](O)[C@@H](O)[C@@H](O[C@H]7[C@H](O)[C@@H](O)[C@@H](O[C@H]1[C@H](O)[C@H]2O)O[C@@H]7CO)O[C@@H]6CO)O[C@@H]5CO)O[C@@H]4CO)O[C@@H]3CO [α-Cyclodextrin, α-cyclodextrin] |  |  |  | pKa value (25° C.) [4]: 12.331 |
